Test results reported in ChEMBL document CHEMBL4828736, “Discovery of ASTX029, A Clinical Candidate Which Modulates the Phosphorylation and Catalytic Activity of ERK1/2” (J Med Chem, 2021).

Test system: not listed separately
Assay: in vivo
Conditions: rat, po, 50 mg/kg

bioavailability at 24 h [%] | Compound
35 | COc1cc(F)cc([C@@H](CO)NC(=O)[C@@H](C)N2Cc3ccc(-c4nc(NC5CCOCC5)ncc4Cl)cc3C2=O)c1 [BEROTERKIB ANHYDROUS]

Test system: not listed separately
Assay: in vivo
Conditions: rat, po, 50 mg/kg
Remark: another data set of the same source

half-life at 24 h [h] | Compound
2.8 | COc1cc(F)cc([C@@H](CO)NC(=O)[C@@H](C)N2Cc3ccc(-c4nc(NC5CCOCC5)ncc4Cl)cc3C2=O)c1 [BEROTERKIB ANHYDROUS]

Test system: not listed separately
Assay: in vivo
Conditions: rat, po, 100 mg/kg

half-life at 24 h [h] | Compound
2.5 | COc1cc(F)cc([C@@H](CO)NC(=O)[C@@H](C)N2Cc3ccc(-c4nc(NC5CCOCC5)ncc4Cl)cc3C2=O)c1 [BEROTERKIB ANHYDROUS]

Test system: not listed separately
Assay: in vivo
Conditions: rat, po, 50 mg/kg
Remark: another data set of the same source

AUC at 24 h [ng·h/mL] | Compound
17500 | COc1cc(F)cc([C@@H](CO)NC(=O)[C@@H](C)N2Cc3ccc(-c4nc(NC5CCOCC5)ncc4Cl)cc3C2=O)c1 [BEROTERKIB ANHYDROUS]

Test system: not listed separately
Assay: in vivo
Conditions: rat, po, 50 mg/kg
Remark: another data set of the same source

Cmax at 24 h [ng/mL] | Compound
2740 | COc1cc(F)cc([C@@H](CO)NC(=O)[C@@H](C)N2Cc3ccc(-c4nc(NC5CCOCC5)ncc4Cl)cc3C2=O)c1 [BEROTERKIB ANHYDROUS]

Test system: not listed separately
Assay: in vivo
Conditions: rat, po, 1 mg/kg

half-life at 24 h [h] | Compound
1.5 | COc1cc(F)cc([C@@H](CO)NC(=O)[C@@H](C)N2Cc3ccc(-c4nc(NC5CCOCC5)ncc4Cl)cc3C2=O)c1 [BEROTERKIB ANHYDROUS]

Test system: not listed separately
Assay: in vivo
Conditions: rat, po, 100 mg/kg
Remark: another data set of the same source

Tmax at 24 h [h] | Compound
2 | COc1cc(F)cc([C@@H](CO)NC(=O)[C@@H](C)N2Cc3ccc(-c4nc(NC5CCOCC5)ncc4Cl)cc3C2=O)c1 [BEROTERKIB ANHYDROUS]

Test system: not listed separately
Assay: physchem
Conditions: buffer, pH 7.4

chromatographic logD | Compound
3.3 | COc1cc(F)cc([C@@H](CO)NC(=O)[C@@H](C)N2Cc3ccc(-c4nc(Nc5ccnn5C)ncc4Cl)cc3C2=O)c1
3.8 | COc1cc(F)cc([C@@H](CO)NC(=O)[C@@H](C)N2Cc3ccc(-c4nc(NC5CCOCC5)ncc4Cl)cc3C2=O)c1 [BEROTERKIB ANHYDROUS]

Test system: not listed separately
Assay: in vivo
Conditions: Beagle, dog, iv

clearance at 24 h [mL/min/kg] | Compound
0.56 | COc1cc(F)cc([C@@H](CO)NC(=O)[C@@H](C)N2Cc3ccc(-c4nc(NC5CCOCC5)ncc4Cl)cc3C2=O)c1 [BEROTERKIB ANHYDROUS]

Test system: not listed separately
Assay: in vivo
Conditions: rat, po, 100 mg/kg
Remark: another data set of the same source

AUC at 24 h [ng·h/mL] | Compound
118000 | COc1cc(F)cc([C@@H](CO)NC(=O)[C@@H](C)N2Cc3ccc(-c4nc(NC5CCOCC5)ncc4Cl)cc3C2=O)c1 [BEROTERKIB ANHYDROUS]

Test system: not listed separately
Assay: in vivo
Conditions: rat, iv, 0.5 mg/kg

clearance at 24 h [mL/min/kg] | Compound
18 | COc1cc(F)cc([C@@H](CO)NC(=O)[C@@H](C)N2Cc3ccc(-c4nc(NC5CCOCC5)ncc4Cl)cc3C2=O)c1 [BEROTERKIB ANHYDROUS]

Test system: not listed separately
Assay: in vitro
Conditions: human, microsomes

half-life at 40 min, 1 µM [h] | Compound
0.383 | COc1cc(F)cc([C@@H](CO)NC(=O)[C@@H](C)N2Cc3ccc(-c4nc(Nc5ccnn5C)ncc4Cl)cc3C2=O)c1
0.55 | COc1cc(F)cc([C@@H](CO)NC(=O)[C@@H](C)N2Cc3ccc(-c4nc(NC5CCOCC5)ncc4Cl)cc3C2=O)c1 [BEROTERKIB ANHYDROUS]

Test system: not listed separately
Assay: in vivo
Conditions: BALB/c, mouse, po, 5 mg/kg

bioavailability at 24 h [%] | Compound
13 | COc1cc(F)cc([C@@H](CO)NC(=O)[C@@H](C)N2Cc3ccc(-c4nc(Nc5ccnn5C)ncc4Cl)cc3C2=O)c1
42 | COc1cc(F)cc([C@@H](CO)NC(=O)[C@@H](C)N2Cc3ccc(-c4nc(NC5CCOCC5)ncc4Cl)cc3C2=O)c1 [BEROTERKIB ANHYDROUS]

Biological target: CYP3A4 (Homo sapiens, UniProt P08684)
Sequence (P08684 whole entry): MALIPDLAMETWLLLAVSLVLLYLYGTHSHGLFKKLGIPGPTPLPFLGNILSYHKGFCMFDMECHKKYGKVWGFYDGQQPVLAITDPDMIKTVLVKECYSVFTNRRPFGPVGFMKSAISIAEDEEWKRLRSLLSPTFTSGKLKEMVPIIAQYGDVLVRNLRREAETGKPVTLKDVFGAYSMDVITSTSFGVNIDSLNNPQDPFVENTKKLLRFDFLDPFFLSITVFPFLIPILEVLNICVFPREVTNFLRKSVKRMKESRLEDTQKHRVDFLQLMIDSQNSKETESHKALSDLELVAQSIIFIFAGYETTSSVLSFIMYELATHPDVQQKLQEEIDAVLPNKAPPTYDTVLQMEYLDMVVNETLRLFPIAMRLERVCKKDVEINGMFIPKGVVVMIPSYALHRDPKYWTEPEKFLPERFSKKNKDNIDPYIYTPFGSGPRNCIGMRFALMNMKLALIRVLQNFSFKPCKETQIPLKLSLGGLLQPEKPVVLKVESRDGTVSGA
Assay: in vitro
Conditions: recombinant enzyme

half-life at 40 min, 1 µM [h] | Compound
0.217 | COc1cc(F)cc([C@@H](CO)NC(=O)[C@@H](C)N2Cc3ccc(-c4nc(Nc5ccnn5C)ncc4Cl)cc3C2=O)c1

Test system: not listed separately
Assay: in vivo
Conditions: BALB/c, mouse, po, 5 mg/kg
Remark: another data set of the same source

half-life at 24 h [h] | Compound
1.1 | COc1cc(F)cc([C@@H](CO)NC(=O)[C@@H](C)N2Cc3ccc(-c4nc(Nc5ccnn5C)ncc4Cl)cc3C2=O)c1
2.9 | COc1cc(F)cc([C@@H](CO)NC(=O)[C@@H](C)N2Cc3ccc(-c4nc(NC5CCOCC5)ncc4Cl)cc3C2=O)c1 [BEROTERKIB ANHYDROUS]

Test system: not listed separately
Assay: in vivo
Conditions: rat, po, 50 mg/kg
Remark: another data set of the same source

Tmax at 24 h [h] | Compound
2 | COc1cc(F)cc([C@@H](CO)NC(=O)[C@@H](C)N2Cc3ccc(-c4nc(NC5CCOCC5)ncc4Cl)cc3C2=O)c1 [BEROTERKIB ANHYDROUS]

Test system: not listed separately
Assay: in vivo
Conditions: Beagle, dog, po, 0.5 mg/kg

half-life at 24 h [h] | Compound
1.1 | COc1cc(F)cc([C@@H](CO)NC(=O)[C@@H](C)N2Cc3ccc(-c4nc(NC5CCOCC5)ncc4Cl)cc3C2=O)c1 [BEROTERKIB ANHYDROUS]

Test system: not listed separately
Assay: in vivo
Conditions: BALB/c, mouse, iv, 0.5 mg/kg

Vd at 24 h [L/kg] | Compound
0.52 | COc1cc(F)cc([C@@H](CO)NC(=O)[C@@H](C)N2Cc3ccc(-c4nc(Nc5ccnn5C)ncc4Cl)cc3C2=O)c1
0.68 | COc1cc(F)cc([C@@H](CO)NC(=O)[C@@H](C)N2Cc3ccc(-c4nc(NC5CCOCC5)ncc4Cl)cc3C2=O)c1 [BEROTERKIB ANHYDROUS]

Test system: not listed separately
Assay: in vitro
Conditions: CD1, mouse, microsomes

half-life at 40 min, 1 µM [h] | Compound
0.583 | COc1cc(F)cc([C@@H](CO)NC(=O)[C@@H](C)N2Cc3ccc(-c4nc(Nc5ccnn5C)ncc4Cl)cc3C2=O)c1
0.767 | COc1cc(F)cc([C@@H](CO)NC(=O)[C@@H](C)N2Cc3ccc(-c4nc(NC5CCOCC5)ncc4Cl)cc3C2=O)c1 [BEROTERKIB ANHYDROUS]

Test system: not listed separately
Assay: in vivo
Conditions: Beagle, dog, po, 0.5 mg/kg
Remark: another data set of the same source

AUC at 24 h [ng·h/mL] | Compound
12300 | COc1cc(F)cc([C@@H](CO)NC(=O)[C@@H](C)N2Cc3ccc(-c4nc(NC5CCOCC5)ncc4Cl)cc3C2=O)c1 [BEROTERKIB ANHYDROUS]

Test system: not listed separately
Assay: in vivo
Conditions: rat, po, 1 mg/kg
Remark: another data set of the same source

Cmax at 24 h [ng/mL] | Compound
25.8 | COc1cc(F)cc([C@@H](CO)NC(=O)[C@@H](C)N2Cc3ccc(-c4nc(NC5CCOCC5)ncc4Cl)cc3C2=O)c1 [BEROTERKIB ANHYDROUS]

Test system: not listed separately
Assay: in vivo
Conditions: Beagle, dog, iv
Remark: another data set of the same source

Vd at 24 h [L/kg] | Compound
0.071 | COc1cc(F)cc([C@@H](CO)NC(=O)[C@@H](C)N2Cc3ccc(-c4nc(NC5CCOCC5)ncc4Cl)cc3C2=O)c1 [BEROTERKIB ANHYDROUS]

Test system: not listed separately
Assay: in vivo
Conditions: rat, iv, 0.5 mg/kg
Remark: another data set of the same source

Vd at 24 h [L/kg] | Compound
0.77 | COc1cc(F)cc([C@@H](CO)NC(=O)[C@@H](C)N2Cc3ccc(-c4nc(NC5CCOCC5)ncc4Cl)cc3C2=O)c1 [BEROTERKIB ANHYDROUS]

Test system: not listed separately
Assay: in vivo
Conditions: rat, po, 1 mg/kg
Remark: another data set of the same source

bioavailability at 24 h [%] | Compound
6.1 | COc1cc(F)cc([C@@H](CO)NC(=O)[C@@H](C)N2Cc3ccc(-c4nc(NC5CCOCC5)ncc4Cl)cc3C2=O)c1 [BEROTERKIB ANHYDROUS]

Test system: COLO 205
Assay: cells
Assay type: functional, cell-based
Conditions: Homo sapiens, COLO 205, 96 h

IC50 [nM] | Compound
10 | COc1cc(F)cc([C@@H](CO)NC(=O)[C@@H](C)N2Cc3ccc(-c4nc(Nc5ccnn5C)ncc4Cl)cc3C2=O)c1

Test system: not listed separately
Assay: in vivo
Conditions: Beagle, dog, po, 0.5 mg/kg
Remark: another data set of the same source

bioavailability at 24 h [%] | Compound
91 | COc1cc(F)cc([C@@H](CO)NC(=O)[C@@H](C)N2Cc3ccc(-c4nc(NC5CCOCC5)ncc4Cl)cc3C2=O)c1 [BEROTERKIB ANHYDROUS]

Test system: not listed separately
Assay: in vivo
Conditions: BALB/c, mouse, po, 5 mg/kg
Remark: another data set of the same source

AUC at 24 h [ng·h/mL] | Compound
824 | COc1cc(F)cc([C@@H](CO)NC(=O)[C@@H](C)N2Cc3ccc(-c4nc(Nc5ccnn5C)ncc4Cl)cc3C2=O)c1
1600 | COc1cc(F)cc([C@@H](CO)NC(=O)[C@@H](C)N2Cc3ccc(-c4nc(NC5CCOCC5)ncc4Cl)cc3C2=O)c1 [BEROTERKIB ANHYDROUS]

Test system: not listed separately
Assay: in vivo
Conditions: rat, po, 100 mg/kg
Remark: another data set of the same source

bioavailability at 24 h [%] | Compound
> 100 | COc1cc(F)cc([C@@H](CO)NC(=O)[C@@H](C)N2Cc3ccc(-c4nc(NC5CCOCC5)ncc4Cl)cc3C2=O)c1 [BEROTERKIB ANHYDROUS]

Test system: not listed separately
Assay: in vivo
Conditions: Beagle, dog, po, 0.5 mg/kg
Remark: another data set of the same source

Tmax at 24 h [h] | Compound
1 | COc1cc(F)cc([C@@H](CO)NC(=O)[C@@H](C)N2Cc3ccc(-c4nc(NC5CCOCC5)ncc4Cl)cc3C2=O)c1 [BEROTERKIB ANHYDROUS]

Test system: not listed separately
Assay: in vivo
Conditions: Beagle, dog, po, 0.5 mg/kg
Remark: another data set of the same source

Cmax at 24 h [ng/mL] | Compound
3660 | COc1cc(F)cc([C@@H](CO)NC(=O)[C@@H](C)N2Cc3ccc(-c4nc(NC5CCOCC5)ncc4Cl)cc3C2=O)c1 [BEROTERKIB ANHYDROUS]

Test system: not listed separately
Assay: in vivo
Conditions: rat, po, 100 mg/kg
Remark: another data set of the same source

Cmax at 24 h [ng/mL] | Compound
15700 | COc1cc(F)cc([C@@H](CO)NC(=O)[C@@H](C)N2Cc3ccc(-c4nc(NC5CCOCC5)ncc4Cl)cc3C2=O)c1 [BEROTERKIB ANHYDROUS]

Test system: not listed separately
Assay: in vivo
Conditions: rat, po, 1 mg/kg
Remark: another data set of the same source

Tmax at 24 h [h] | Compound
0.5 | COc1cc(F)cc([C@@H](CO)NC(=O)[C@@H](C)N2Cc3ccc(-c4nc(NC5CCOCC5)ncc4Cl)cc3C2=O)c1 [BEROTERKIB ANHYDROUS]

Test system: not listed separately
Assay: in vivo
Conditions: BALB/c, mouse, iv, 0.5 mg/kg
Remark: another data set of the same source

clearance at 24 h [mL/min/kg] | Compound
13 | COc1cc(F)cc([C@@H](CO)NC(=O)[C@@H](C)N2Cc3ccc(-c4nc(Nc5ccnn5C)ncc4Cl)cc3C2=O)c1
22 | COc1cc(F)cc([C@@H](CO)NC(=O)[C@@H](C)N2Cc3ccc(-c4nc(NC5CCOCC5)ncc4Cl)cc3C2=O)c1 [BEROTERKIB ANHYDROUS]

Test system: not listed separately
Assay: in vivo
Conditions: rat, po, 1 mg/kg
Remark: another data set of the same source

AUC at 24 h [ng·h/mL] | Compound
57.9 | COc1cc(F)cc([C@@H](CO)NC(=O)[C@@H](C)N2Cc3ccc(-c4nc(NC5CCOCC5)ncc4Cl)cc3C2=O)c1 [BEROTERKIB ANHYDROUS]
